Experimental data published in PMC7901650, “Garcinoic Acid Is a Natural and Selective Agonist of Pregnane X Receptor” (Journal of Medicinal Chemistry, 2020).

Columns and labels:
[1] = test system: PXR; assay: PXR, CYP3A4 (CYP3A11) expression in mouse liver and intestine after single bolus; assay type: in vivo; settings: 24 h post-treatment
[2] = target: T1, FXR (Homo sapiens, UniProt Q96RI1); assay: AlphaScreen nuclear receptor panel, FXR; assay type: biochemical
T1 construct: GST-LBD
T1 sequence (Q96RI1 262-486 limits assumed): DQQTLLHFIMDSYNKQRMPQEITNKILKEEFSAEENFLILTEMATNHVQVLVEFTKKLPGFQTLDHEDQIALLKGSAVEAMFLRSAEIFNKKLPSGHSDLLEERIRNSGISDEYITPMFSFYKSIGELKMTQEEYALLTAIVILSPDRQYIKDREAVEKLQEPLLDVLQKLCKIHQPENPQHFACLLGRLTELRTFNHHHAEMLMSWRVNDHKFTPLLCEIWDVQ
Excerpt: (§1) Ligand binding activity of GA (1) was explored via AlphaScreen technology over a panel of NRs that, along with hPXR (Figure 1A), included major human endocrine and metabolic receptors, such as the retinoid X receptor (RXR), constitutive androstane receptor (CAR), farnesoid X receptor (FXR), vitamin D receptor (VDR), liver X receptor (LXR) forms α and β, and the PPAR isoforms α, δ, and γ (see Figure S1). GA (1) was compared to its analogue δ-tocotrienol (5), the vitamers 3 and 4, their short-chain metabolites (SCMs) α-CEHC (10) and γ-CEHC (11), and the LCMs 2 and 8 (Chart 1). The test was performed in the presence of reference standard agonists for the different NRs.
(§2) The activity of nuclear receptors was determined using AlphaScreen technology, a recruitment coactivator assay previously described.[56]
(§3) (A) The test was carried out at 10 μM compound final concentration. Ligand binding to nuclear receptors was expressed as luminescence units. […] Vehicle was assessed to obtain a measure of background signal (basal evaluation). […] In presence of the ligand, the nuclear receptor LBD undergoes conformational changes, binds to the coactivator and the chemical energy is transferred from donor to acceptor beads in order to produce a signal, i.e. luminescence; in this case the compounds behaves as agonist, changing the conformation of the receptor to recruit the coactivator. […]

[3] = target: T2, hPXR (Homo sapiens, UniProt O75469); assay: AlphaScreen coactivator recruitment assay, PXR; assay type: biochemical; settings: 10 μM compound concentration
T2 construct: GST-LBD
T2 sequence (O75469 146-433 limits assumed): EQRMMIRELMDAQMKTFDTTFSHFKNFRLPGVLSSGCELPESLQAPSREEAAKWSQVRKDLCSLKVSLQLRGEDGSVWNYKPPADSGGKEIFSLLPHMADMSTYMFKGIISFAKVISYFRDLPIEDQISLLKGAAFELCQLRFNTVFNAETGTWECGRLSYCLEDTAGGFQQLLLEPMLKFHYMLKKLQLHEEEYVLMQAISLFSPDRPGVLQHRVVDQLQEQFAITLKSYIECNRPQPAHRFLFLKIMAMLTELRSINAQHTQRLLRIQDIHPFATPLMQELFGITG

[4] = test system: HepG2 cells; assay: PXR, CYP3A4 and MDR1 expression in HepG2 cells; assay type: cell-based
Method: HepG2 (human hepatoma cell line; ATCC HB-8065, Manassas, VA) and HepaRG (HPRGC10, Thermo Fisher Scientific) cells were maintained in culture as previously described.[47] Experiments were performed between passages 2 and 10. Cell viability, clonogenic activity, and apoptotic cell death were assessed as previously described (see Figure S2).[58],[59] HT29 human colorectal adenocarcinoma cells (ATCC HTB-38) and its mucous-secreting HT29-MTX subclone (Sigma-Aldrich) were used as intestinal cell models. HT29 cells were cultured in RPMI (Invitrogen; Life Technologies) containing 10% FBS (v/v) and 1% (v/v) L-glutamine. HT29-MTX cells (from Sigma-Aldrich) were cultured in DMEM supplemented with 2 mM glutamine, 1% nonessential amino acids, and 10% FBS. Cells were maintained at 37 C in a humidified 5% (v/v) CO2 atmosphere chamber and were used between passages 10 and 20.
Cells were harvested and lysed in ice-cold cell lysis buffer (Cell Signaling Technology) and 20 μL/mL protease inhibitor cocktail (Roche). Murine tissues (10 mg each) were weighed and resuspended in 300 μL of PBS supplemented with NP40 (1:50) and a cocktail of protease inhibitors (Pierce, Thermo Fisher Scientific). After preliminary homogenation in a 1-mL potter, sonication was performed in ice (3 cycles of 15 s each with 1 min intervals). After incubation in ice for 1 h and centrifugation (12 000 rpm for 20 min at 4 °C), the supernatant was recovered, and total proteins were quantified by the BCA assay kit (Pierce, Thermo Fisher Scientific). […] The band intensity was analyzed using Gel Pro analyzer Software. […]
RNA was extracted using the RNeasy Plus Kit (QIAGEN, Valencia, CA) and quantified with Implen NanoPhotometer (GmbH Germany), and cDNA synthesis was carried out using SuperScript IV (Thermo Fisher Scientific, MA). […]

[5] = test system: PPARs; assay: AlphaScreen nuclear receptor panel, PPARs; assay type: biochemical, human
Excerpt: as §1, §2, §3

## C/C(=C\CC/C(C)=C/CC[C@]1(C)CCc2cc(O)cc(C)c2O1)CC/C=C(\C)C(=O)O [GA (1), (2E,6E,10E)-13-[(2R)-6-hydroxy-2,8-dimethyl-chroman-2-yl]-2,6,10-trimethyltrideca-2,6,10-trienoic acid]
[1]; 5 to 25 mg single bolus
  CYP3A4 (CYP3A11 in mice) protein expression in liver and intestine: increased
[1]; mice, 5 to 25 mg single bolus
  PXR mRNA in intestine: increased
  PXR protein and mRNA in liver tissue: dose-dependent stimulation effect
[1]; mice, single bolus
  PXR protein expression in intestine: not sufficient to significantly increase PXR protein expression
[2]
  Response on FXR: No response
[3]
  PXR agonist activity (AlphaScreen, single concentration): significant PXR agonist activity
[4]; HepG2, 1 to 50 μM
  MDR1 gene expression: increased in a dose–dose-dependent manner
[4]; HepG2, 24 h, 1 and 25 μM
  CYP3A4 protein and mRNA expression: increased in a dose–dose-dependent manner
  PXR protein expression: increased in a dose–dose-dependent manner
[5]
  Response on PPARs: No response
